Laboratory results reported in patent US10059702B2, “Inhibitors of LC3/ATG3 interaction and their use in the treatment of cancer” (THE JOHNS HOPKINS UNIVERSITY, priority 2014, dated 2018).

Columns and labels:
hLC3 = assay: SPR binding of purified hLC3 to PTA immobilized on an SPR chip; parameters: species or system human; conditions: read-out: affinity of hLC3 to PTA on the SPR chip
Source text: (§1) FIGS. 2A-2C depict the properties of the PTA-binding site on hLC3. 2A) Energy-minimized docking pose of PTA to hLC3. The pyridinylthiazolamine ringsystem predominantly binds to the W-site of hLC3. 2B) Conservation of amino acids between hLC3 and Plasmodium Atg8. Shown in yellow sticks is the bound peptide of Atg3. The W-Site is highly conserved, whereas the L-site is less conserved, explaining the lower affinity of hLC3 to PTA (FIGS. 2A, 2B adapted from Hain et al. 2013). 2C) Direct binding interaction of purified hLC3 or PfAtg8 to PTA immobilized on a SPR chip to determine their respective affinities.
(§2) In comparing the sequence conservation of this W-/L-site between PfAtg8 and hLC3, it is apparent that the W-site has maintained a higher degree of conservation, as indicated by the magenta patch in FIG. 2B. To test whether or not the W-/L-site of Atg8 was indeed the interaction area to which our small molecules bind, we performed SPR binding studies with different Atg8-homologs, essentially mimicking mutational studies in the environment of the W-/L-site. This allowed us to explore the key features of the binding site in a manner that was much more efficient than introducing multiple single point mutations for each protein of interest at a time.
(§3) SPR studies were performed on PfAtg8 and hLC3 binding to the PTA molecule immobilized on an SPR chip. […]

HCT8 colon cancer cells = assay: PTA-susceptibility of HCT8 colon cancer cells: microscopy and anti-LC3 Western blot; type: cell-based, human; conditions: 24 hours
Source text: FIG. 4 provides an anti-LC3 Western blot of PTA treated HCT8 colon cancer cells with corresponding Coomassie stained 4-20% SDS-PAGE. The arrows indicate the band used for quantification with ImageJ. The SDS gel indicates approximate equal amounts were loaded per lane.
To be functional in autophagy processes, hLC3 undergoes two critical activation processes. First a C-terminal glycine has to be exposed through proteolytic cleavage by the […] protease Atg4. Second, a lipid, phosphatidylethanolamine (PE), is conjugated to the C-terminal glycine residue resulting in hLC3-PE (hLC3-II). The inventors previously discovered 4-formyl-N-(4-pyridin-2-yl-1,3-thiazol-2-yl)benzamide (PTA) as an autophagy inhibitor in their studies on the plasmodial system in search of protein-protein interaction inhibitors of the PfAtg8-PfAtg3 interaction, the homologous system in the malaria parasite. The lipidated form of either Atg8 or hLC3 (hLC3-II) can be resolved from the unlipidated form (hLC3-I) using SDS-PAGE due to their different migration speeds. Specific commercial antibodies for hLC3 detection were used in these studies to quantify the two species via Western blot in treated and untreated cancer cell lines.
We used a DMSO-vehicle control. All experiments were carried out at 1% final DMSO concentration for 24 hours at 37° C. and 5% CO2. […] The DMSO control sample was trypsinized to detach the cells from the culture dish. All cells were collected and spun down before resuspending them in SDS-loading dye for SDS-PAGE and Western blot analysis. Commercial monoclonal antibodies directed against hLC3 (D3U4C Rabbit mAB) and GAPDH (14C10 Rabbit mAB) as loading control were used. The Western blot clearly distinguishes between the un-lipidated (hLC3-I) and lipidated (hLC3-II) form by their migration speed in the SDS-gel (FIG. 4). The lipidated form migrates faster in an SDS-gel due to its additional negative charge from the conjugated phospholipid. […] 0.5% DMSO will be used as a vehicle control and 33 nM Wortmannin as a positive control for autophagy inhibition.

[1] = system: HepG2, a hepatocarcinoma cell line; assay: Impedance assay (xCELLigence, Cell Index), HepG2; type: cell-based; conditions: for effect on cell impedance: HepG2, 100 μM to 1.5 μM
Procedure: (§4) PTA or Compound 10 were added ranging from 100 μM to 1.5 μM to the cells after […]. The apparent IC50 after 72 hours of drug treatment was calculated and is shown in the inset of each graph of the triplicate impedance measurement per concentration. The DMSO vehicle control is shown as dark red line.
(§5) MCF-7 cells were maintained in RPMI media supplemented with 10% fetal bovine serum. HepG2 cells were maintained in Dulbecco's modified Eagle medium (DMEM, Invitrogen) media supplemented with 10% fetal bovine serum and 1×MEM non-essential amino acids. For cytotoxicity experiments, cells were plated on T-75 flasks and grown until they reached at 70-80% confluency.
(§6) Cell proliferation was monitored in real-time cell electronic sensing (xCELLigence System, Acea Biosciences) through gold microelectrode arrays on the bottom of 96 E-Plates. 100 μl of corresponding culture media was added into each well of 96 E-Plates, which inserted into the station and background measurement was taken. Then, cells (5,000 cells/well in 100 μl) were seeded into 96 E-Plates containing 100 μl medium/well. After about 20 hours, 200 μl medium was discarded and replaced with 100 μl of fresh medium containing indicated amounts of compounds for each well. In the xCELLigence System the changes in cell number are detected as modifications in the measurement of electrical impedance and are represented as Cell Index (CI).
(§7) To define the range of metastasizing cancer cell lines susceptible to PTA derivatives of the present invention, we can use the HUVEC electrical-impedance assay. Invasive tumor cell lines are monitored through electric impedance measurements of human umbilical vein endothelial cells (HUVEC) monolayers in the presence of PTA derivatives. […] The invasion potential of the tumor cell is measured by the change in cell impedance as the HUVEC monolayer junctions are compromised by the invading tumor cells. Cells can be monitored over multiple days while the real-time impedance is recorded. […]

HC-04 liver cells = assay: Cytotoxicity in HC-04 liver cells; type: cell-based; conditions: 30 μM PTA for 96 hours
PfAtg8 [2] = molecular target: PfAtg8 (Plasmodium falciparum, UniProt Q8IJK2); assay: Surface plasmon resonance (SPR): direct binding of purified PfAtg8 to PTA immobilized on an SPR chip; conditions: W-/L-site, FIG. 3, read-out: PfAtg8 Kd (binding affinity to PTA)
Source text: as §1
To maintain the identical view, residue differences were painted onto the PfAtg8 structure. Residues in the proximity of the W-/L-site of hLC3 lead to lower binding affinities of our current molecule targeting the Atg8-Atg3 interaction.
as §2, with “This allowed us to explore the key features of the binding site in a manner that was much more efficient than introducing multiple single point mutations for each protein of interest at a time.” left out

[3] = system: hLC3 with hAtg3 interaction; assay: hLC3/hAtg3 protein-protein interaction in vitro; type: binding, human
Procedure: Our structural understanding of how the hLC3 binds the PTA-scaffold combined with surface plasmon resonance (SPR)-interaction studies, has enabled the inventors to design the PTA-analogs of the present invention with low Koff-rates. […] These new PTA-analogs are tested in SPR-based assays with purified recombinant hLC3 and hAtg3 to assess their ability to prevent the protein-protein interaction. Newly emerging molecules from our efforts are subjected to dose-dependent cell based screening with our cancer line collection.
About 120 PTA-homologs were identified in the PubChem database (pubchem.ncbi.nlm.nih.gov) that are available through commercial vendors. In a first assessment to determine which homologs to focus on initially, virtual library screening was performed with the known hLC3 structures (1UGM, 3ECI, 3WAL, 3WAO). Comparing the docking results from different structures of hLC3 allowed us to assemble a short list of nine high priority compounds (compounds 1-9). […] Two complementary assays will be utilized, the first assesses the small molecule's ability to block the protein-protein interaction of hLC3 with hAtg3. The second assay is used to directly measure the binding of the small molecule to immobilized hLC3 on an SPR chip, which will allow us to draw conclusions about the physical interaction between the two binding partners.

PfAtg8 [4] = molecular target: T1, PfAtg8 (Plasmodium falciparum, UniProt Q8IJK2); assay: SPR binding of purified PfAtg8 to PTA immobilized on an SPR chip; conditions: comparison of hLC3 with PfAtg8
T1 sequence (Q8IJK2 1-124): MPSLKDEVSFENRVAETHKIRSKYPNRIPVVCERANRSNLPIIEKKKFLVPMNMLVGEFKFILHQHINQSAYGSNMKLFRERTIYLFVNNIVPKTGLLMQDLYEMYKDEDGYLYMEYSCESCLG
Source text: as §1, §2, §3

[5] = system: MCF-7, a breast cancer cell line; assay: Impedance assay (xCELLigence, Cell Index), MCF-7; type: cell-based; conditions: for effect on cell impedance: MCF-7, 100 μM to 1.5 μM
Procedure: as §4, §5, §6, §7

Row | Compound | Kd (hLC3) [µM] | cell appearance by microscopy at lowest concentration (HCT8 colon cancer cells; HCT8, 6.75 μM PTA) | hLC3 lipidation (hLC3-I / hLC3-II bands) in Western blot (HCT8 colon cancer cells; HCT8, PTA treated) | cell appearance by microscopy (HCT8 colon cancer cells; HCT8, about 100 μM to 6.25 μM PTA, 1% DMSO) | effect on cell impedance [1] | IC50 ([1]; Homo sapiens, HepG2, impedance, 100 μM to 1.5 μM, 72 hours, read-out: apparent IC50 after 72 hours of drug treatment) [µM] | cytotoxic effect / tolerability (HC-04 liver cells) | Kd (PfAtg8 [2]) [µM] | prevention of protein-protein interaction of hLC3 with hAtg3 [3] | binding affinity to immobilized PTA, hLC3 versus PfAtg8 (PfAtg8 [4]) | IC50 ([5]; MCF7a, MCF-7, impedance, 100 μM to 1.5 μM, 72 hours, read-out: apparent IC50 after 72 hours of drug treatment) [µM] | effect on cell impedance [5]
1 | O=Cc1ccc(C(=O)Nc2nc(-c3ccccn3)cs2)cc1 [PTA, 4-formyl-N-(4-pyridin-2-yl-1,3-thiazol-2-yl)benzamide] | 18 | a few patches of attached cells still visible | accumulation of the slower migrating hLC3-I band is visible | detached, blebbing cells with a concentration dependent phenotype | concentration dependent effect | ~18 | well tolerated | 0.54 | specifically prevents the protein-protein interaction of hLC3 with hAtg3 | decrease of binding affinity for hLC3 versus PfAtg8 | ~18 | concentration dependent effect
2 | COC(OC)c1ccc(C(=O)Nc2ncc(-c3ccccn3)s2)cc1 [Compound 10] |  |  |  |  | concentration dependent effect |  |  |  |  |  |  | concentration dependent effect
